Assay results published in patent US10869931B2, “Polyethylene glycol-modified angiogenesis inhibitor HM-1 and application thereof” (NANJING ANJI BIOLOGICAL TECHNOLOGY CO.,LTD, priority 2016, dated 2020).
Where no end group is shown, it is not given here.

What was measured:
[1] = test system: Head and neck cancer tumor cells; assay: MTT proliferation inhibition, head and neck cancer cells; type: cell-based, human; design: concentration or dose not given beside the values; conditions: 48 h
Outline: (§1)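 Tumour cells plated at 2×10^4 cells/mL, attached overnight, then exposed to dilutions of mPEG-HM-1 for 48 h at 37 °C, 5% CO2. MTT added 4 h, formazan dissolved in DMSO, absorbance 570/630 nm; growth inhibition = 1 − treated/untreated, three independent repeats, mean±SD.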

[2] = test system: Thyroid cancer tumor cells; assay: MTT proliferation inhibition, thyroid cancer cells; type: cell-based, human; design: concentration or dose not given beside the values; conditions: 48 h
Outline: as §1

[3] = test system: Pancreatic cancer tumor cells; assay: MTT proliferation inhibition, pancreatic cancer cells; type: cell-based, human; design: concentration or dose not given beside the values; conditions: 48 h
Outline: as §1

[4] = test system: Lung cancer tumor cells; assay: MTT proliferation inhibition, lung cancer cells; type: cell-based, human; design: concentration or dose not given beside the values; conditions: 48 h
Outline: as §1

[5] = test system: Kidney cancer tumor cells; assay: MTT proliferation inhibition, kidney cancer cells; type: cell-based, human; design: concentration or dose not given beside the values; conditions: 48 h
Outline: as §1

[6] = test system: Ovarian cancer tumor cells; assay: MTT proliferation inhibition, ovarian cancer cells; type: cell-based, human; design: concentration or dose not given beside the values; conditions: 48 h
Outline: as §1

[7] = test system: Cervical cancer tumor cells; assay: MTT proliferation inhibition, cervical cancer cells; type: cell-based, human; design: concentration or dose not given beside the values; conditions: 48 h
Outline: as §1

[8] = test system: Bladder Cancer tumor cells; assay: MTT proliferation inhibition, bladder cancer cells; type: cell-based, human; design: concentration or dose not given beside the values; conditions: 48 h
Outline: as §1

[9] = test system: Melanoma tumor cells; assay: MTT proliferation inhibition, melanoma cells; type: cell-based, human; design: concentration or dose not given beside the values; conditions: 48 h
Outline: as §1

[10] = test system: mouse spleen lymphocytes; assay: ConA-stimulated mouse spleen lymphocyte proliferation (MTT); type: cell-based; conditions: ConA 5 μg/mL, 48 h
Outline: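 Proliferation read by MTT (4 h), DMSO solubilisation and OD 570 nm, 5 replicates, after 48 h culture at 37° C. Cells were erythrocyte-depleted splenocytes at 5×10^6/mL in RPMI 1640 plus 10% calf serum; groups were blank, ConA and dexamethasone 0.02 mg/mL.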

[11] = test system: IL-1β production by mouse peritoneal macrophages; assay: IL-1β production by mouse peritoneal macrophages (ELISA); type: cell-based; conditions: 48 h
Outline: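 Starch-elicited mouse peritoneal macrophages (2×10^6 cells/mL), adhered 3 h, treated with low, medium and high concentrations of mPEG-HM-1 for 48 h; dexamethasone as positive control. Supernatant IL-1β quantified by sandwich ELISA at OD450.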

| Substance | rate of growth inhibition [1] | rate of growth inhibition [2] | rate of growth inhibition [3] | rate of growth inhibition [4] | rate of growth inhibition [5] | rate of growth inhibition [6] | rate of growth inhibition [7] | rate of growth inhibition [8] | rate of growth inhibition [9] | A570 nm/A630 nm ([10]; 10 μg/mL) | Inhibition Rate of spleen lymphocyte proliferation ([10]; 10 μg/mL) | A570 nm/A630 nm ([10]; 20 μg/mL) | Inhibition Rate of spleen lymphocyte proliferation ([10]; 20 μg/mL) | A570 nm/A630 nm ([10]; 40 μg/mL) | Inhibition Rate of spleen lymphocyte proliferation ([10]; 40 μg/mL) | IL-1β ([11]; 10 μg/mL) | Inhibition Rate of IL-1β production ([11]; 10 μg/mL) | IL-1β ([11]; 20 μg/mL) | IL-1β ([11]; 40 μg/mL) | Inhibition Rate of IL-1β production ([11]; 40 μg/mL) | further results |
| --- | --- | --- | --- | --- | --- | --- | --- | --- | --- | --- | --- | --- | --- | --- | --- | --- | --- | --- | --- | --- | --- |
| mPEG2-NHS10k-Arg-Gly-Ala-Asp-Arg-Ala-Gly-Gly-Gly-Gly-Arg-Gly-Asp ({mPEG2‑NHS 10 kDa}-RGADRAGGGGRGD) [mPEG2-NHS10k-HM-1] | 43.52 ± 11.16% | 40.47 ± 12.03% | 50.23 ± 14.26% | 45.28 ± 13.96% | 52.09 ± 14.91% | 60.69 ± 21.24% | 54.82 ± 17.10% | 43.78 ± 10.16% | 65.89 ± 20.57% | 0.6239 ± 0.1086 | 9.90% | 0.5533 ± 0.1067 | 20.09% | 0.4747 ± 0.1174 | 31.44% | 758.32 ± 15.18 pg/mL | 18.12% | 675.25 ± 11.93 pg/mL | 546.79 ± 14.12 pg/mL | 40.96% | Inhibition Rate of IL-1β production ([11]; 20 μg/mL): 27.09% |
| mPEG-ALD40k-Arg-Gly-Ala-Asp-Arg-Ala-Gly-Gly-Gly-Gly-Arg-Gly-Asp ({mPEG‑ALD 40 kDa}-RGADRAGGGGRGD) [mPEG-ALD40k-HM-1] | 42.18 ± 10.01% | 49.03 ± 13.08% | 65.31 ± 19.81% | 55.44 ± 16.13% | 68.46 ± 20.98% | 74.61 ± 20.09% | 70.62 ± 19.14% | 43.22 ± 10.31% | 75.18 ± 21.75% |  |  |  |  | 0.6176 ± 0.0998 | 10.09% |  |  |  | 742.06 ± 16.59 pg/mL | 19.07% | A570 nm/A630 nm ([10]; 80 μg/mL): 0.5040 ± 0.1239; Inhibition Rate of spleen lymphocyte proliferation ([10]; 80 μg/mL): 26.63%; A570 nm/A630 nm ([10]; 160 μg/mL): 0.4770 ± 0.1057; Inhibition Rate of spleen lymphocyte proliferation ([10]; 160 μg/mL): 30.56%; IL-1β ([11]; 80 μg/mL): 664.40 ± 18.43 pg/mL; Inhibition Rate of IL-1β production ([11]; 80 μg/mL): 27.54%; IL-1β ([11]; 160 μg/mL): 495.96 ± 10.95 pg/mL; Inhibition Rate of IL-1β production ([11]; 160 μg/mL): 45.91% |
| mPEG-SC10k-Arg-Gly-Ala-Asp-Arg-Ala-Gly-Gly-Gly-Gly-Arg-Gly-Asp ({mPEG‑SC 10 kDa}-RGADRAGGGGRGD) [mPEG-SC10k-HM-1] | 45.61 ± 11.12% | 46.23 ± 13.05% | 60.53 ± 17.16% | 50.29 ± 13.18% | 60.07 ± 14.24% | 65.89 ± 23.37% | 57.17 ± 18.40% | 42.76 ± 10.06% | 70.62 ± 20.17% | 0.6234 ± 0.0976 | 9.60% | 0.5488 ± 0.1052 | 20.42% | 0.4788 ± 0.1282 | 30.57% | 758.05 ± 15.18 pg/mL | 19.10% | 666.50 ± 11.93 pg/mL | 553.03 ± 14.12 pg/mL | 40.98% | Inhibition Rate of IL-1β production ([11]; 20 μg/mL): 28.87% |
